{"source": "patent US12447167B2", "about": "“GM-CSF-producing t-cell control agent and Th1/Th2 immune balance regulator” (National Center of Neurology and Psychiatry, priority 2014, dated 2025)", "tested_on": "GM-CSF-producing CD8-positive T-cells", "experiment": "GM-CSF-producing CD8-positive T-cells in PBMCs of normal subjects after single oral dose (FACS)", "format": "in vivo, human", "method": "A single dose of compound 31, which is a synthetic glycolipid of the present invention, described in the first aspect, i.e., (2S,3S,4R)-1-O-(α-D-galactosyl)-2-(N-tetracosanoylamino)-1,3,4-nonanetriol represented by the following formula (III), was orally administered to each of subjects of 4 cohorts (A, B, C, and D cohorts) each consisting of 3 normal subjects shown in Table 1 above after obtainment of informed consent.\nThe dose was set to 0.3 mg per person for A cohort, 1 mg per person for B cohort, 3 mg per person for C cohort, and 10 mg per person for D cohort.\nSubsequently, T-cell subfractions were prepared from the peripheral blood of each subject by using the density gradient centrifugation method. First, a total of 20 mL of blood was collected from the vein of each subject 24 hours (1st day), 48 hours (2nd day), 72 hours (3rd day), and 168 hours (7th day) after the administration of compound 31 by using two 10-mL heparin sodium-containing vacuum blood collection tubes. For a control, 20 mL of blood was similarly collected from the vein of each subject one day before the administration of compound 31.\nNext, 4 mL of Ficoll-Paque Plus (GE Healthcare Biosciences Corp.) was placed in each of four 15-mL conical tubes, and 10 mL of blood diluted twice with phosphate buffered saline (PBS) was gently layered thereon. Then, density gradient centrifugation was performed by centrifugation at 1800 rpm at ordinary temperature for 30 minutes. After the centrifugation, a supernatant containing plasma and platelet was discarded, and lymphocytes present at the boundary layer between the supernatant layer and the Ficoll-Paque Plus layer were recovered into a fresh 50-mL conical tube. The 50-mL conical tube was filled by adding PBS thereto, followed by centrifugation at 1800 rpm at ordinary temperature for 5 minutes. […] After a supernatant was removed by suction again, a single cell suspension was prepared by adding 1 mL of AIM-V medium (Life Technologies Corp.), and then, the number of cells was measured with a counting chamber. […]", "data": [{"smiles": "CCCCCCCCCCCCCCCCCCCCCCCC(=O)NC(COC1OC(CO)C(O)C(O)C1O)[C@H](O)C(O)CCCCC", "note": "(stereo in doubt) [compound 31, (2S,3S,4R)-1-O-(α-D-galactosyl)-2-(N-tetracosanoylamino)-1,3,4-nonanetriol]", "values": [{"measurement": "suppressive effects on CD8-positive T-cells", "setting": "A cohort (0.3 mg), 7 days after administration", "result": "strengthened"}, {"measurement": "growth of CD8-positive T-cells", "setting": "C cohort (3 mg), 1 day after administration", "result": "transiently promoted"}, {"measurement": "proportion of CD8-positive T-cells (GM-CSF-producing) in PBMCs", "setting": "single oral dose, all cohorts, after administration vs day-1", "result": "decreased"}]}]}
